Inconclusive results and toxic doses are left out. Rule as the data show it: active = T/C of 150% or more; inactive = T/C below 125%.
Tested on: L1210 leukemia ip in BDF1 mice, survival T/C
Experiment: NCI In Vivo Anticancer Drug Screen. Data for tumor model L1210 Leukemia (intraperitoneal) in B6D2F1 (BDF1) mice
Conditions: endpoint: mean survival time, higher = longer survival
Method in brief: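 Tumor was transplanted into mice, which were then dosed with test compound or vehicle alone. Survival was recorded for each group, and the treated figure was expressed relative to the control figure.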

[1] = dose: 100.0 mg/kg/injection, schedule: Q01DX009 (ip), vehicle: Klucel (hydroxypropylcellulose) (HPC)
[2] = dose: 100.0 mg/kg/injection, schedule: Q04DX003 (ip), vehicle: Klucel (hydroxypropylcellulose) (HPC)
[3] = dose: 200.0 mg/kg/injection, schedule: Q04DX003 (ip), vehicle: Klucel (hydroxypropylcellulose) (HPC)
[4] = dose: 400.0 mg/kg/injection, schedule: Q04DX003 (ip), vehicle: Klucel (hydroxypropylcellulose) (HPC)

Measured: T/C

CC(=O)[O][Hg][CH2]C1(C)COC(C)([CH2][Hg][O]C(C)=O)CO1 (stereo not given)
inactive: dose: 10.0 mg/kg/injection, schedule: Q01DX001 (ip), vehicle: carboxymethylcellulose (CMC) 108 % of control | dose: 20.0 mg/kg/injection, schedule: Q01DX001 (ip), vehicle: carboxymethylcellulose (CMC) 97 % of control | dose: 80.0 mg/kg/injection, schedule: Q01DX001 (ip), vehicle: carboxymethylcellulose (CMC) 97 % of control

CN(C)C1CCCCC1
inactive: dose: 25.0 mg/kg/injection, schedule: Q01DX009 (ip), vehicle: Klucel (hydroxypropylcellulose) (HPC) 105 % of control | dose: 50.0 mg/kg/injection, schedule: Q01DX009 (ip), vehicle: Klucel (hydroxypropylcellulose) (HPC) 100 % of control | [1] 114 % of control | [2] 117 % of control | [3] 101 % of control | [4] 96 % of control

CCOC12c3ccccc3N(S(C)(=O)=O)C(C)C1C2(Br)Br (stereo not given)
inactive: [1] 94 % of control | [2] 110 % of control | dose: 200.0 mg/kg/injection, schedule: Q01DX009 (ip), vehicle: Klucel (hydroxypropylcellulose) (HPC) 94 % of control | [3] 102 % of control | dose: 400.0 mg/kg/injection, schedule: Q01DX009 (ip), vehicle: Klucel (hydroxypropylcellulose) (HPC) 90 % of control | [4] 109 % of control

— PubChem BioAssay AID248 (DTP/NCI, 2004)
